Molecules are shown by their SMILES.

Assay type in all cases: biochemical
For one assay, the target named is T1, KDM6A (UTX) (Homo sapiens, UniProt O15550).
T1 construct: 919-1401; host or cells: E. coli
The assay is described as follows: Histone lysine demethylase AlphaLISA assay, KDM6A. To be noted: in vitro enzyme, read-out: KDM6A IC50 (HDME Inhibition).

Another assay deals with T2, KDM2B (FBXL10) (Homo sapiens, UniProt Q8NHM5).
T2 construct: 1-650; purchased BPS Bioscience, US; host or cells: Bac (baculovirus/insect cells)
T2 sequence (Q8NHM5 1-650): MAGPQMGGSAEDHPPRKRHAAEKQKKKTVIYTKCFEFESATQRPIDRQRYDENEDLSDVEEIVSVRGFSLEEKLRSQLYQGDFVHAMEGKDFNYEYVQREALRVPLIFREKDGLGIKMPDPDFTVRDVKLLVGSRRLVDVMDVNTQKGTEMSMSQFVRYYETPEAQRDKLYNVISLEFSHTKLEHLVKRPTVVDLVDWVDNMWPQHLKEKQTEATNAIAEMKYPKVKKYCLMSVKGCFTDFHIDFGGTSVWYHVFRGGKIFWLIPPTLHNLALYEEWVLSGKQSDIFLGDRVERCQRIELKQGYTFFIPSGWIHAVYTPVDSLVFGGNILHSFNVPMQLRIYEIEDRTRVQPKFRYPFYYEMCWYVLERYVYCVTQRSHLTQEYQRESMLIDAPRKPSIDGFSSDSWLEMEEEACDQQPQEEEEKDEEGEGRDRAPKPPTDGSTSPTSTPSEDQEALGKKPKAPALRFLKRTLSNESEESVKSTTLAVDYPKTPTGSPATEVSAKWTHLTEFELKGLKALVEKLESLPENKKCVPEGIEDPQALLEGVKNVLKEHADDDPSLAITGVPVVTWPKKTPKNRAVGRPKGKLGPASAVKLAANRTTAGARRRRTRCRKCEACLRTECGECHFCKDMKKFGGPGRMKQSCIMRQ
Kind of assay: Histone lysine demethylase AlphaLISA assay, KDM2B. To be noted: in vitro enzyme, read-out: KDM2B IC50 (HDME Inhibition). A general note: Bead proximity is the source of the signal in Alpha formats.

A further assay concerns the target PHF8 (KDM7) (Homo sapiens, UniProt Q9UPP1). Kind of assay: Histone lysine demethylase AlphaLISA assay, PHF8. Particulars: in vitro enzyme, read-out: PHF8 IC50 (HDME Inhibition).
A further assay has as its target T3, KDM5B (PLU-1) (Homo sapiens, UniProt Q9UGL1).
T3 construct: 1-809; host or cells: E. coli
T3 sequence (Q9UGL1 1-809): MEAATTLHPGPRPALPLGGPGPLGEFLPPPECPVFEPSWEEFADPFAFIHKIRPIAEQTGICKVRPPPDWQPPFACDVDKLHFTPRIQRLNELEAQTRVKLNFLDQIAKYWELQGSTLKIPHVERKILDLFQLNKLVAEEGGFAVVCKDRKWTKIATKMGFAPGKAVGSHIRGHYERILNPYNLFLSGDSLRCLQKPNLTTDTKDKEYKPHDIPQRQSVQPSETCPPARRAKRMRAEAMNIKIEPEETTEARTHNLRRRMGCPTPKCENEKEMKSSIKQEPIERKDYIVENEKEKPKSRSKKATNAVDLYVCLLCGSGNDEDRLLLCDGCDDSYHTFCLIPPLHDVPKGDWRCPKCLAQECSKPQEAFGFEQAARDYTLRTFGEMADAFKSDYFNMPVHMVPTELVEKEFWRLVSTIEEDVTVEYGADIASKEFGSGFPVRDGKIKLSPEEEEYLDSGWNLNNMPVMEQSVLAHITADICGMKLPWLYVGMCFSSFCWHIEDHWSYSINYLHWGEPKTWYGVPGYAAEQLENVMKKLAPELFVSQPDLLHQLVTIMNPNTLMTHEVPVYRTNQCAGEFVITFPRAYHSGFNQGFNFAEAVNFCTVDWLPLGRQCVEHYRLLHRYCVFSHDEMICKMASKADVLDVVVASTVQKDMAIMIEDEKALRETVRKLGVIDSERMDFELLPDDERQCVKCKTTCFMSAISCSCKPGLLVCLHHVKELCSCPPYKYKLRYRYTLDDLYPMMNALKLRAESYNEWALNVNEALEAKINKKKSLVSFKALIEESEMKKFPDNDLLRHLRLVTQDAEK
The assay is described as follows: Histone lysine demethylase AlphaLISA assay, KDM5B. To be noted: in vitro enzyme, read-out: KDM5B IC50 (HDME Inhibition). The protocol: (§1) Histone lysine demethylase AlphaLISA assays are performed to determine IC50 values. […] Assays are performed analogously to the protocol described by PerkinElmer (Roy et al. PerkinElmer Technical Note: AlphaLISA #12, April 2011).
(§2) Assays are performed analogously to the protocol described by PerkinElmer (Roy et al. PerkinElmer Technical Note: AlphaLISA #12, April 2011).
(§3) Enzymes (final assay concentration 0.1-2.5 nM) are dissolved in enzyme buffer and incubated for 10 min before 5 μL is added to 5 μL 3% DMSO solutions of compounds in enzyme buffer, incubated for another 10 minutes, before 5 μL substrate solution is added and the reaction mixture is incubated at room temperature. 10 μL acceptor beads, suspended Epigenetic Buffer (Perkin Elmer AL008) from stock, are added and the suspension is incubated in the dark at room temperature, before 10 μL suspension of streptavidin donor beads (Perkin Elmer 6760002) in Epigenetic Buffer is added. After incubation at room temperature in the dark the plates are read.
(§4) Substrate solution: Substrate (final assay concentration 50-200 nM), 50 mM Hepes (pH 7.4-8.0), 0.003% Tween-20, 0.1% BS, 25 μM L-Asc, 10 μM α-KG. Enzyme Buffer: 50 mM Hepes (pH 7.4-8.0), 0.003% Tween-20, 0.1% BSA; 5 μM (NH4)2Fe(SO4)2

The target in the next assay is T4, KDM4C (JMJD2C) (Homo sapiens, UniProt Q9H3R0).
T4 construct: 1-349; host or cells: E. coli
T4 sequence (Q9H3R0 1-349): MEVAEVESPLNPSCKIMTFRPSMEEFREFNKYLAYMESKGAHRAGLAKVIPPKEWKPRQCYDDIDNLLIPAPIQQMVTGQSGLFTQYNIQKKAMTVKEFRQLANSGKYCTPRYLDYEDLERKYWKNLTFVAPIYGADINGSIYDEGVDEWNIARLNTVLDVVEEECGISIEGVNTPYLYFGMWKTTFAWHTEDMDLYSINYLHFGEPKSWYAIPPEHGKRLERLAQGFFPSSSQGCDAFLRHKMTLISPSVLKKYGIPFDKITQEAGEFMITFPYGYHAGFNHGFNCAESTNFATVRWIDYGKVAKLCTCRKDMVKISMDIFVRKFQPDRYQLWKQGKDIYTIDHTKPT
Kind of assay: Histone lysine demethylase AlphaLISA assay, KDM4C. To be noted: in vitro enzyme, read-out: KDM4C IC50 (HDME Inhibition). The protocol: as §1, §2, §3, §4

Sequence of PHF8 (KDM7) (Q9UPP1 whole entry): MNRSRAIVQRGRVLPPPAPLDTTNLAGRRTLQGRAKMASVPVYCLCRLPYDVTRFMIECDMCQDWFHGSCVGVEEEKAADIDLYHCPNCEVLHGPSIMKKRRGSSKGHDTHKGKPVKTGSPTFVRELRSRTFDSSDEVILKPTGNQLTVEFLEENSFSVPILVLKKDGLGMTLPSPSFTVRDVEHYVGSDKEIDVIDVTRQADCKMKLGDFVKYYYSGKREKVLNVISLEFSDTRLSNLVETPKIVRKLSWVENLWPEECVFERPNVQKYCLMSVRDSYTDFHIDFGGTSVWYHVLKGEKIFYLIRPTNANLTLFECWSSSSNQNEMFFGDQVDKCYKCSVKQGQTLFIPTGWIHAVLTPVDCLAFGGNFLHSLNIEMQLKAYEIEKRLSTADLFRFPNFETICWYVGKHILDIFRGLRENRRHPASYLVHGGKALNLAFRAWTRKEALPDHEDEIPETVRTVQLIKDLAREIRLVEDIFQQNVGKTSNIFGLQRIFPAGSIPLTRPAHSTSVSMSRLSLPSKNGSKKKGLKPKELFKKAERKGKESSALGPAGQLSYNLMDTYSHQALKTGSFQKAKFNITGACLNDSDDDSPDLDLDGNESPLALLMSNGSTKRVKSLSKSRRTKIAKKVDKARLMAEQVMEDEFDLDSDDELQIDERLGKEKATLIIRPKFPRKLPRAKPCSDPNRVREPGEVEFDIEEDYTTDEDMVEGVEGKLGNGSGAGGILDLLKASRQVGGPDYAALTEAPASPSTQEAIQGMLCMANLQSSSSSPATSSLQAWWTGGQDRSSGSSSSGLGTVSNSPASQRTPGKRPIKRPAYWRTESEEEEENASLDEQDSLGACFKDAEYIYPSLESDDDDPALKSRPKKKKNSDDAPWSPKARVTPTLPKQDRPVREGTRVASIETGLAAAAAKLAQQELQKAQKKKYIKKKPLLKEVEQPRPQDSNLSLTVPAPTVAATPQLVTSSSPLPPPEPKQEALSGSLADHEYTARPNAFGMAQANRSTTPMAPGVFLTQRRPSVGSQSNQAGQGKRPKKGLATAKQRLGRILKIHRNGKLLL
T1 sequence (O15550 919-1401): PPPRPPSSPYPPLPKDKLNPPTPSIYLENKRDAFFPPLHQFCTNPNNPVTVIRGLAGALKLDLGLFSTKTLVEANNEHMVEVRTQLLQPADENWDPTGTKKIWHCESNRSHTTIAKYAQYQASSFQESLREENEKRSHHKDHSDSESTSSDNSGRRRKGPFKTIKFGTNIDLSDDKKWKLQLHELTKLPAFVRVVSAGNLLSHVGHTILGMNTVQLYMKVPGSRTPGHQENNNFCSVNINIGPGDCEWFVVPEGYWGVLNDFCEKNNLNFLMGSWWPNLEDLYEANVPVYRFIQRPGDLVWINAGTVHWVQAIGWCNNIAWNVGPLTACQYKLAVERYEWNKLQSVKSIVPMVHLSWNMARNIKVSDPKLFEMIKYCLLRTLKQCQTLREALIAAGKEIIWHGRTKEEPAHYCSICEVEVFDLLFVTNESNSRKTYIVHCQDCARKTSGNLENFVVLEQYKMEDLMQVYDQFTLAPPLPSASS

The IC50 is the concentration needed to halve the response being measured. Regarding `O=C(O)c1ccnc(CNC2CCc3c(Cc4ccccc4)ccnc32)c1` (stereo not shown) [Compound 92, 2-[({4-benzyl-5H,6H,7H-cyclopenta[b]pyridin-7-yl}amino)methyl]pyri-dine-4-carboxylic acid], the IC50 at KDM6A (UTX) is over 2.5 µM; at KDM2B (FBXL10), 0.25 to 2.5 µM; on PHF8 (KDM7), 0.25 to 2.5 µM; at KDM5B (PLU-1), under 0.25 µM.
Take `Cc1cn2c(n1)CCN(Cc1cc(C(=O)O)ccn1)CCC2` [Compound 67, 2-({2-methyl-5H,6H,7H,8H,9H,10H-imidazo[1,2-a][1,5]diazocin-8-yl}methyl)pyridine-4-carboxylic acid]: the 50% inhibitory concentration (IC50) at KDM6A (UTX), on KDM4C (JMJD2C) and on KDM5B (PLU-1) was over 2.5 µM throughout.
Regarding `CC(C)C[C@@H](CO)NCc1cc(C(=O)O)ccn1` [Compound 61, (S)-2-{[(1-hydroxy-4-methylpentan-2-yl)amino]methyl}pyri-dine-4-carboxylic acid], the half-inhibitory concentration (IC50) at KDM4C (JMJD2C) and at KDM5B (PLU-1) was under 0.25 µM each time.
With `CC(N[C@@H](C)C(=O)NCc1ccc([N+](=O)[O-])cc1)c1cc(C(=O)O)ccn1` (stereo partly drawn) [Compound 5, 2-(1-{[(1S)-1-{[(4-nitrophenyl)methyl]carbamoyl}ethyl]amino}ethyl)pyridine-4-carboxylic acid], the half-maximal inhibitory concentration (IC50) at PHF8 (KDM7), at KDM4C (JMJD2C) and on KDM5B (PLU-1) was over 2.5 µM throughout.
For `O=C(O)c1ccnc(CN2CCCC[C@H]2CC(=O)N2CCCCC2)c1` [Compound 70, 2-{[(2S)-2-[2-oxo-2-(piperidin-1-yl)ethyl]piperidin-1-yl]methyl}pyridine-4-carboxylic acid], the 50% inhibitory concentration (IC50) at PHF8 (KDM7) and at KDM4C (JMJD2C) was over 2.5 µM throughout.
On to `CC(C)C[C@H](CO)NC(C)c1cc(C(=O)O)ccn1` (stereo partly drawn) [Compound 33, 2-(1-{[(2R)-1-hydroxy-4-methylpentan-2-yl]amino}ethyl)pyridine-4-carboxylic acid], for which the IC50 is over 2.5 µM at KDM6A (UTX), over 2.5 µM at KDM4C (JMJD2C) and 0.25 to 2.5 µM on KDM5B (PLU-1).
As to `CCNC(=O)C1CN(Cc2cc(C(=O)O)ccn2)C1` [Compound 68, 2-{[3-(ethylcarbamoyl)azetidin-1-yl]methyl}pyridine-4-carboxylic acid], the IC50 on PHF8 (KDM7) is under 0.25 µM; at KDM4C (JMJD2C) it was 0.25 to 2.5 µM; on KDM5B (PLU-1), 0.25 to 2.5 µM.
With `CCNC(=O)C1CCN(Cc2cc(C(=O)O)ccn2)CC1` [Compound 75, 2-{[4-(ethylcarbamoyl)piper-idin-1-yl]methyl} pyridine-4-carboxylic acid], the IC50 at KDM6A (UTX) was over 2.5 µM; on KDM2B (FBXL10), 0.25 to 2.5 µM; at PHF8 (KDM7), 0.25 to 2.5 µM; on KDM5B (PLU-1), over 2.5 µM.
In the case of `O=C(O)c1ccnc(CNC2CCn3ccnc32)c1` (stereo not shown) [Compound 93, 2-[({5H,6H,7H-pyrrolo[1,2-a]imidazol-7-yl}amino)methyl]pyri-dine-4-carboxylic acid], the concentration for half-maximal inhibition (IC50) on KDM6A (UTX) was over 2.5 µM; on KDM4C (JMJD2C), 0.25 to 2.5 µM; at KDM5B (PLU-1) it was under 0.25 µM.
With `O=C(O)c1ccnc(CN2CCC(c3ccc(F)cc3)n3ccnc3C2)c1` (stereo not shown) [Compound 50, 2-{[5-(4-fluorophenyl)-5H,6H,7H,8H,9H-imidazo[1,2-a][1,4]diazepin-8-yl]methyl}pyridine-4-carboxylic acid], the 50% inhibitory concentration (IC50) on PHF8 (KDM7) is over 2.5 µM; on KDM4C (JMJD2C), over 2.5 µM; at KDM5B (PLU-1), 0.25 to 2.5 µM.
Consider `C=Cc1ccnc2c1CCC2NCc1cc(C(=O)O)ccn1` (stereo not shown) [Compound 100, 2-[({4-ethenyl-5H,6H,7H-cyclopenta[b]pyridin-7-yl}amino)methyl]pyri-dine-4-carboxylic acid], for which the IC50 is under 0.25 µM on PHF8 (KDM7), 0.25 to 2.5 µM at KDM4C (JMJD2C) and under 0.25 µM at KDM5B (PLU-1).
In the case of `CC(N[C@@H](C)C(=O)NCc1cccc(C(=O)O)c1)c1cc(C(=O)O)ccn1` (stereo partly drawn) [Compound 1, 2-(1-{[(1S)-1-{[(3-carboxyphenyl)methyl]carbamoyl}ethyl]amino}ethyl)pyridine-4-carboxylic acid], the IC50 at KDM6A (UTX) and at KDM4C (JMJD2C) was over 2.5 µM throughout.
For the compound `CCN(CC)C(=O)CCN(CCNC(C)=O)Cc1cc(C(=O)O)ccn1` [Compound 27, 2-({[2-(diethylcarbamoyl)ethyl](2-acetamidoethyl)amino}methyl)pyridine-4-carboxylic acid], the IC50 is over 2.5 µM on KDM6A (UTX), 0.25 to 2.5 µM at KDM2B (FBXL10), 0.25 to 2.5 µM on PHF8 (KDM7) and 0.25 to 2.5 µM on KDM5B (PLU-1).
For the compound `O=C(O)c1ccnc(CN2CCCC(C3CCCCC3)C2CO)c1` (stereo not shown) [Compound 62, 2-{[3-cyclohexyl-2-(hydroxymethyl)piperidin-1-yl]methyl}pyridine-4-carboxylic acid], the results for the IC50 at KDM4C (JMJD2C) and on KDM5B (PLU-1) were over 2.5 µM and 0.25 to 2.5 µM, respectively.
Turning to `O=C(O)c1ccnc(CN2CCCC(c3ccccc3)C2CO)c1` (stereo not shown) [Compound 63, 2-{[2-(hydroxymethyl)-3-phenylpiperidin-1-yl]methyl}pyridine-4-carboxylic acid], the IC50 at KDM4C (JMJD2C) and at KDM5B (PLU-1) was over 2.5 µM throughout.
As to `O=C(O)c1ccnc(CNC2CCc3c(Br)ccnc32)c1` (stereo not shown) [Compound 91, 2-[({4-bromo-5H,6H,7H-cyclopenta[b]pyridin-7-yl}amino)methyl]pyri-dine-4-carboxylic acid], the IC50 at KDM4C (JMJD2C) is 0.25 to 2.5 µM; on KDM5B (PLU-1), under 0.25 µM.
`O=C(O)c1ccnc(CNC2CCCn3ccnc32)c1` (stereo not shown) [Compound 90, 2-[({5H,6H,7H,8H-imidazo[1,2-a]pyridin-8-yl}amino)methyl]pyri-dine-4-carboxylic acid]: the values for the concentration for half-maximal inhibition (IC50) at PHF8 (KDM7), on KDM4C (JMJD2C) and at KDM5B (PLU-1) were under 0.25 µM, 0.25 to 2.5 µM and under 0.25 µM, respectively.
`CC(C)(C)c1nc2ccccn2c1CNCc1cc(C(=O)O)ccn1` [Compound 88, 2-{[({2-tert-butylimidazo[1,2-a]pyridin-3-yl}methyl)amino]methyl}pyridine-4-carboxylic acid]: the IC50 at KDM6A (UTX) is over 2.5 µM; at KDM2B (FBXL10) it was 0.25 to 2.5 µM; on PHF8 (KDM7), under 0.25 µM; at KDM5B (PLU-1) it was under 0.25 µM.
